Test results taken from patent publication US9073855B2, “BCL-2 selective apoptosis-inducing agents for the treatment of cancer and immune diseases” (AbbVie Inc., priority 2008, dated 2015).

Tests used:
GST-Bcl-2 = GST-Bcl-2 (Homo sapiens, UniProt P10415); experiment: TR-FRET binding assay, GST-Bcl-2 with F-Bak peptide probe; settings: TR-FRET Binding Affinity, GST-Bcl-2, F-Bak peptide probe
How it was run: (§1)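 Displacement of a fluorescein-labelled Bak peptide from the GST-tagged protein was followed by time-resolved FRET with a terbium anti-GST donor after 3 h incubation at room temperature. Inhibition constants were calculated with Wang's equation.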

GST-Bcl-XL = GST-Bcl-XL (Homo sapiens, UniProt Q07817); experiment: TR-FRET binding assay, GST-Bcl-XL with F-Bak peptide probe; settings: TR-FRET Binding Affinity, GST-Bcl-XL, F-Bak peptide probe
Sequence of GST-Bcl-XL (Q07817 whole entry): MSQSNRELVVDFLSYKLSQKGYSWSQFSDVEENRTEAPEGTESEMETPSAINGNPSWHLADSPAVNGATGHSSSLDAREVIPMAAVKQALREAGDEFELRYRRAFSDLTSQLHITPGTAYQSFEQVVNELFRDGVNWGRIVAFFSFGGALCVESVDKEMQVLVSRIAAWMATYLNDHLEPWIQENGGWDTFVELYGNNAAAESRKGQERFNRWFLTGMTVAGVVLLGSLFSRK
How it was run: as §1

FL5.12/Bcl-2 cells = experiment: FL5.12/Bcl-2 cell viability assay under IL-3 withdrawal (CellTitre Glo); format: cell-based, murine; settings: Mus musculus, IL-3 withdrawn 48 hrs, then 24 hrs with compound
How it was run: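 Viability measured with CellTiter-Glo after 24 h compound treatment at various concentrations, following 48 h IL-3 withdrawal (no WEHI-3B medium). Cells: prolymphocytic mouse FL5.12 line stably transfected to overexpress Bcl-2, cultured at 37 °C, 5% CO2.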

Sequence of GST-Bcl-2 (P10415 whole entry): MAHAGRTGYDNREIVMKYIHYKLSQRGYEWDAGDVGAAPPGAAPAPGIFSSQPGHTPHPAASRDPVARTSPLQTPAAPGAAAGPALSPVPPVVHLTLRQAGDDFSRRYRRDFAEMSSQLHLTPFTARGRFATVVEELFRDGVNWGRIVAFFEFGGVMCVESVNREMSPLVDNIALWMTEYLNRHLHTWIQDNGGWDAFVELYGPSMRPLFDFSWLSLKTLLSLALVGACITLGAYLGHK

Compound | Ki (GST-Bcl-2) [nM] | Ki (GST-Bcl-XL) [nM] | EC50 (FL5.12/Bcl-2 cells) [nM]
CC1(C)CCC(CN2CCN(c3ccc(C(=O)NS(=O)(=O)c4ccc(S(C)(=O)=O)cc4)c(Oc4ccc5[nH]ccc5c4)c3)CC2)=C(c2ccc(Cl)cc2)C1 [Example 382, 4-(4-{[2-(4-chlorophenyl)-4,4-dimethylcyclohex-1-en-1-yl]methyl}piperazin-1-yl)-2-(1H-indol-5-yloxy)-N-{[4-(methylsulfonyl)phenyl]sulfonyl}benzamide] | 1.15 | > 660 | > 500
CN1CC(Nc2ccc(S(=O)(=O)NC(=O)c3ccc(N4CCN(CC5=C(c6ccc(Cl)cc6)CC(C)(C)CC5)CC4)cc3Oc3ccc4[nH]ccc4c3)cc2[N+](=O)[O-])CCC1=O (stereo not drawn) [Example 282, 4-(4-{[2-(4-chlorophenyl)-4,4-dimethylcyclohex-1-en-1-yl]methyl}piperazin-1-yl)-2-(1H-indol-5-yloxy)-N-({4-[(1-methyl-6-oxopiperidin-3-yl)amino]-3-nitrophenyl}sulfonyl)benzamide] | 0.164 | 562 | 92.2
CN(C)CCCc1cccc(-c2ccc(Cl)cc2)c1CN1CCN(c2ccc(C(=O)NS(=O)(=O)c3ccc(NCC4CCOCC4)c([N+](=O)[O-])c3)c(Oc3cccc4[nH]ccc34)c2)CC1 [Example 196, 4-[4-({4′-chloro-3-[3-(dimethylamino)propyl]-1,1′-biphenyl-2-yl}methyl)piperazin-1-yl]-2-(1H-indol-4-yloxy)-N-({3-nitro-4-[(tetrahydro-2H-pyran-4-ylmethyl)amino]phenyl}sulfonyl)benzamide] | 0.032 | > 660 | 12.4
CC(c1ccccc1-c1ccc(Cl)cc1)N1CCN(c2ccc(C(=O)NS(=O)(=O)c3ccc(NCCCN4CCOCC4)c([N+](=O)[O-])c3)c(Oc3cccc4[nH]ccc34)c2)CC1 (stereo not drawn) [Example 247, 4-{4-[1-(4′-chloro-1,1′-biphenyl-2-yl)ethyl]piperazin-1-yl}-2-(1H-indol-4-yloxy)-N-({4-[(3-morpholin-4-ylpropyl)amino]-3-nitrophenyl}sulfonyl)benzamide] | 0.188 | 27.3 | 16.1
CC1(C)CCC(CN2CCN(c3ccc(C(=O)NS(=O)(=O)c4ccc(NCC5CCOCC5)c(C#N)c4)c(Oc4ccc5[nH]ccc5c4)c3)CC2)=C(c2ccc(Cl)cc2)C1 [Example 367, 4-(4-{[2-(4-chlorophenyl)-4,4-dimethylcyclohex-1-en-1-yl]methyl}piperazin-1-yl)-N-({3-cyano-4-[(tetrahydro-2H-pyran-4-ylmethyl)amino]phenyl}sulfonyl)-2-(1H-indol-5-yloxy)benzamide] | 4.61 | > 660 | > 500
CC1(C)CCC(CN2CCN(c3ccc(C(=O)NS(=O)(=O)c4ccc(NCC5(N)CCCCC5)c([N+](=O)[O-])c4)c(Oc4ccc5[nH]ccc5c4)c3)CC2)=C(c2ccc(Cl)cc2)C1 [Example 250, N-[(4-{[(1-aminocyclohexyl)methyl]amino}-3-nitrophenyl)sulfonyl]-4-(4-{[2-(4-chlorophenyl)-4,4-dimethylcyclohex-1-en-1-yl]methyl}piperazin-1-yl)-2-(1H-indol-5-yloxy)benzamide] | 0.266 | 215 | 79.5
COCCCNc1ccc(S(=O)(=O)NC(=O)c2ccc(N3CCN(CC4=C(c5ccc(Cl)cc5)CC(C)(C)CC4)CC3)cc2Oc2ccc3[nH]ccc3c2)cc1[N+](=O)[O-] [Example 317, 4-(4-{[2-(4-chlorophenyl)-4,4-dimethylcyclohex-1-en-1-yl]methyl}piperazin-1-yl)-2-(1H-indol-5-yloxy)-N-({4-[(3-methoxypropyl)amino]-3-nitrophenyl}sulfonyl)benzamide] | 2.8 | > 660 | 83.1
CC1(C)CCC(CN2CCN(c3ccc(C(=O)NS(=O)(=O)c4ccc(NC5(CO)CCOCC5)c([N+](=O)[O-])c4)c(Oc4ccc5[nH]ccc5c4)c3)CC2)=C(c2ccc(Cl)cc2)C1 [Example 240, 4-(4-{[2-(4-chlorophenyl)-4,4-dimethylcyclohex-1-en-1-yl]methyl}piperazin-1-yl)-N-[(4-{[4-(hydroxymethyl)tetrahydro-2H-pyran-4-yl]amino}-3-nitrophenyl)sulfonyl]-2-(1H-indol-5-yloxy)benzamide] | 0.83 | > 660 | 209
CC1(C)CCC(CN2CCN(c3ccc(C(=O)NS(=O)(=O)c4ccc(NCCN5CCOCC5)c(S(=O)(=O)C(F)(F)F)c4)c(Oc4ccc5[nH]ccc5c4)c3)CC2)=C(c2ccc(Cl)cc2)C1 [Example 351, 4-(4-{[2-(4-chlorophenyl)-4,4-dimethylcyclohex-1-en-1-yl]methyl}piperazin-1-yl)-2-(1H-indol-5-yloxy)-N-({4-[(2-morpholin-4-ylethyl)amino]-3-[(trifluoromethyl)sulfonyl]phenyl}sulfonyl)benzamide] | 1.58 | > 660 | 345
CC1(C)CCC(CN2CCN(c3ccc(C(=O)NS(=O)(=O)c4ccc(NCCOC(F)(F)F)c([N+](=O)[O-])c4)c(Oc4cccc5[nH]ccc45)c3)CC2)=C(c2ccc(Cl)cc2)C1 [Example 292, 4-(4-{[2-(4-chlorophenyl)-4,4-dimethylcyclohex-1-en-1-yl]methyl}piperazin-1-yl)-2-(1H-indol-4-yloxy)-N-[(3-nitro-4-{[2-(trifluoromethoxy)ethyl]amino}phenyl)sulfonyl]benzamide] | 0.598 | > 660 | 69.2
O=C(NS(=O)(=O)c1ccc(NCC2CCOCC2)c([N+](=O)[O-])c1)c1ccc(N2CCN(Cc3ccc(C(F)(F)F)cc3-c3ccc(Cl)cc3)CC2)cc1Oc1ccc2[nH]ccc2c1 [Example 339, 4-(4-{[4′-chloro-5-(trifluoromethyl)-1,1′-biphenyl-2-yl]methyl}piperazin-1-yl)-2-(1H-indol-5-yloxy)-N-({3-nitro-4-[(tetrahydro-2H-pyran-4-ylmethyl)amino]phenyl}sulfonyl)benzamide] | 14.1 | > 660 | > 500
CO[C@H]1CC[C@@H](CNc2ccc(S(=O)(=O)NC(=O)c3ccc(N4CCN(CC5=C(c6ccc(Cl)cc6)CC(C)(C)CC5)CC4)cc3Oc3ccc4[nH]ccc4c3)cc2[N+](=O)[O-])CC1 [Example 313, Cis-4-(4-{[2-(4-chlorophenyl)-4,4-dimethylcyclohex-1-en-1-yl]methyl}piperazin-1-yl)-2-(1H-indol-5-yloxy)-N-[(4-{[(4-methoxycyclohexyl)methyl]amino}-3-nitrophenyl)sulfonyl]benzamide] | 0.044 | 66 | 82.9
CC1(C)CCC(CN2CCN(c3ccc(C(=O)NS(=O)(=O)c4ccc(OCC5CCOCC5)c([N+](=O)[O-])c4)c(Oc4ccc5[nH]ccc5c4)c3)CC2)=C(c2ccc(Cl)cc2)C1 [Example 279, 4-(4-{[2-(4-chlorophenyl)-4,4-dimethylcyclohex-1-en-1-yl]methyl}piperazin-1-yl)-2-(1H-indol-5-yloxy)-N-{[3-nitro-4-(tetrahydro-2H-pyran-4-ylmethoxy)phenyl]sulfonyl}benzamide] | 0.095 | > 660 | 16.2
CC(C)Oc1cc(-c2ccc(Cl)cc2)c(CN2CCN(c3ccc(C(=O)NS(=O)(=O)c4ccc(NCC5CCOCC5)c([N+](=O)[O-])c4)c(Oc4ccc5[nH]ccc5c4)c3)CC2)cn1 [Example 330, 4-(4-{[4-(4-chlorophenyl)-6-isopropoxypyridin-3-yl]methyl}piperazin-1-yl)-2-(1H-indol-5-yloxy)-N-({3-nitro-4-[(tetrahydro-2H-pyran-4-ylmethyl)amino]phenyl}sulfonyl)benzamide] | 74.9 | > 660 | > 500
CC1(C)CCC(CN2CCN(c3ccc(C(=O)NS(=O)(=O)c4ccc(NC[C@H]5CCCO5)c([N+](=O)[O-])c4)c(Oc4ccc5[nH]ccc5c4)c3)CC2)=C(c2ccc(Cl)cc2)C1 [Example 370, 4-(4-{[2-(4-chlorophenyl)-4,4-dimethylcyclohex-1-en-1-yl]methyl}piperazin-1-yl)-2-(1H-indol-5-yloxy)-N-[(3-nitro-4-{[(2R)-tetrahydrofuran-2-ylmethyl]amino}phenyl)sulfonyl]benzamide] | 0.904 | > 660 | 263
COCCNc1ccc(S(=O)(=O)NC(=O)c2ccc(N3CCN(CC4=C(c5ccc(Cl)cc5)CC(C)(C)CC4)CC3)cc2Oc2cccc3[nH]ccc23)cc1S(=O)(=O)C(F)(F)F [Example 309, 4-(4-{[2-(4-chlorophenyl)-4,4-dimethylcyclohex-1-en-1-yl]methyl}piperazin-1-yl)-2-(1H-indol-4-yloxy)-N-({4-[(2-methoxyethyl)amino]-3-[(trifluoromethyl)sulfonyl]phenyl}sulfonyl)benzamide] | 4.42 | > 660 | > 500
CC1(C)CCC(CN2CCN(c3ccc(C(=O)NS(=O)(=O)c4ccc(NN5CCOCC5)c([N+](=O)[O-])c4)c(Oc4cccc5[nH]ccc45)c3)CC2)=C(c2ccc(Cl)cc2)C1 [Example 262, 4-(4-{[2-(4-chlorophenyl)-4,4-dimethylcyclohex-1-en-1-yl]methyl}piperazin-1-yl)-2-(1H-indol-4-yloxy)-N-{[4-(morpholin-4-ylamino)-3-nitrophenyl]sulfonyl}benzamide] | 3 | > 660 | 176
